Literature values in patent publication US4100185A, “Cyclohexanone 5,6-benzo analogues of prostaglandin E” (Miles Laboratories, Inc., priority 1977, dated 1978).
Entries after “also recorded” stand apart in the source; their conditions may differ. Read-outs that look alike come from different tables or passages of the source.

Tests used:
[1] = test system: female reproductive system; conditions: in vivo
[2] = test system: motor pathways in the central nervous system
tracheal smooth muscle = conditions: in vitro
growth hormone = conditions: rats
[3] = test system: ovarian progesterone secretion; conditions: sheep
thyroid = conditions: mice
adrenal glands = conditions: hypophysectimized rats
[4] = test system: adrenergic nervie endings; conditions: guinea pig
gastric secretion [5] = conditions: dogs
blood platelets = conditions: in vitro
gastric secretion [6] = conditions: man
[7] = variety of mammals

Row | SMILES | effect on fertility, gestation, labor [1] | effect on transmission in motor pathways [2] | effect on tracheal smooth muscle (tracheal smooth muscle) | effect on growth hormone (growth hormone) | effect on ovarian progesterone secretion [3] | effect on thyroid activity (thyroid) | effect on steroidogenesis in the adrenal glands (adrenal glands) | effect on transmitter release from adrenergic nerve endings [4] | effect on gastric secretion (gastric secretion [5]) | effect on thrombogenesis (blood platelets) | effect on gastric secretion (gastric secretion [6]) | luteolytic effect [7]
1 | CCCCC[C@H](O)/C=C/[C@@H]1[C@@H](C/C=C\CCCC(=O)O)[C@@H](O)C[C@H]1O [PGF2α] | has contragestational effects; also recorded: induces spontaneous abortions in early pregnancy | facilitates transmission in motor pathways in the central nervous system | contracts the smooth muscle | – | – | – | – | – | – | – | – | –
2 | CCCCC[C@H](O)/C=C/[C@H]1[C@H](O)CC(=O)[C@@H]1CCCCCCC(=O)O [PGE1, prostaglandin E1] | – | retards | relax | increase release of growth hormone | inhibit ovarian progesterone secretion | increase thyroid activity | stimulate steriodogenesis in the adrenal glands | inhibit transmitter release from adrenergic nervie endings | inhibit gastric secretion | inhibits thrombogenesis in vitro | – | –
3 | CCCCC[C@H](O)/C=C/[C@H]1[C@H](O)CC(=O)[C@@H]1C/C=C\CCCC(=O)O [PGE2] | exerts potent oxytocic effects in inducing labor | – | relax | increase release of growth hormone | – | increase thyroid activity | stimulate steriodogenesis in the adrenal glands | inhibit transmitter release from adrenergic nervie endings | inhibit gastric secretion | – | – | –
4 | CCCCC[C@H](O)/C=C/[C@H]1C=CC(=O)[C@@H]1CCCCCCC(=O)O [PGA1] | – | – | – | increased synthesis of that hormone | – | – | – | – | inhibit gastric secretion | – | exhibits similar activity in man | –
5 | CCCCC[C@H](O)/C=C/[C@@H]1[C@@H](CCCCCCC(=O)O)[C@@H](O)C[C@H]1O [PGF1α] | – | – | – | – | inhibit ovarian progesterone secretion | increase thyroid activity | stimulate steriodogenesis in the adrenal glands | – | – | – | – | act as luteolytic factors
6 | CCCCC[C@H](O)/C=C/[C@@H]1[C@@H](CCCCCCC(=O)O)[C@H](O)C[C@H]1O [PGF1β] | – | – | – | – | – | increase thyroid activity | – | – | – | – | – | –
